Laboratory results taken from patent US7473688B2, “Indolobenzazepine HCV NS5B inhibitors” (Bristol-Myers Squibb Company, priority 2005, dated 2009).
Where two headings read alike, the source gives them in different places.

Key:
[1] = target: T1, HCV NS5B (Hepatitis C virus genotype 1b, UniProt Q9WMX2); assay: HCV NS5B RdRp enzyme assay (preincubation protocol); type: biochemical
T1 construct: The protein was expressed with an 18 amino acid C-terminal truncation to enhance the solubility; made in house; host or cells: E. coli BL21 (DE3), pET21a
Summary of the method: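 Preincubation format: enzyme (14 nM, genotype 1b, 18-residue C-terminal truncation) meets diluted compound first; reaction started with bead-bound biotinylated dT12 primer, polyA template 0.2 nM and 0.29 μM 3H-UTP. Run 4 h, 30 °C in Hepes pH 7.5; scintillation proximity signal; IC50 fitted from seven inhibitor levels.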

[2] = system: HCV replicon; assay: HCV replicon FRET assay; type: cell-based; conditions: Hepatitis C virus, FRET assay, read-out: EC50*
Summary of the method: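 HCV replicon cells, with or without Renilla luciferase reporter, incubated with titrated compounds at 37 °C; Alamar blue read for cytotoxicity. NS3 protease activity read from lysates with 20 μM EDANS/DABCYL FRET peptide (340/490 nm, kinetic), or by Dual-Glo luciferase. Background from highest protease-inhibitor wells; EC50 = 50% signal reduction.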

T1 sequence (Q9WMX2 2420-2992): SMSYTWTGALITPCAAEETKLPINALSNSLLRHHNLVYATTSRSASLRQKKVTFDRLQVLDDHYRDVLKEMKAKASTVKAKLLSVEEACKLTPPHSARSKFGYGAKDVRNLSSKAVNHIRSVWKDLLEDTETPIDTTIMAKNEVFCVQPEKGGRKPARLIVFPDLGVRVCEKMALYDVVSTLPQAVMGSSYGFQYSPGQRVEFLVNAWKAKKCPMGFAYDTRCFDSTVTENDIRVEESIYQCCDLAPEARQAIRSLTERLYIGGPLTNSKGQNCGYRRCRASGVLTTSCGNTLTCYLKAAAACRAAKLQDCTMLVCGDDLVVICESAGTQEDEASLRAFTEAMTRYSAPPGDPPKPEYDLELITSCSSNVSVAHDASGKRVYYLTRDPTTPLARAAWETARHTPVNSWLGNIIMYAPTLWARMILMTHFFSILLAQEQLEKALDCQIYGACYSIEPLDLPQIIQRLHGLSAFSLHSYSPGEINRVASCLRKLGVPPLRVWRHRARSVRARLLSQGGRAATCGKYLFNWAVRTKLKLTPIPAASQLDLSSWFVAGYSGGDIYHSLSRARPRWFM

Row | SMILES | IC50 ([1]; Table 1, read-out: IC50*) [nM] | EC50 ([2]; Table 1) [nM] | further results
1 | CN(C)S(=O)(=O)NC(=O)c1ccc2c(C3CCCCC3)c3n(c2c1)CC(C(=O)N1CCC(N2CCOCC2)CC1)=Cc1cc(OCc2ccccc2)ccc1-3 [drawing 135] | 10 to 1000 | 70 to 1000 | 
2 | COC(=O)c1ccc2c(C3CCCCC3)c3n(c2c1)CC(NC(=O)N1CCC(N2CCOCC2)CC1)Cc1ccccc1-3 (stereo not shown) | 10 to 1000 | > 120 | 
3 | O=C(O)c1ccc2c(C3CCCCC3)c3n(c2c1)CC(C(=O)Nn1cnnc1)Cc1ccccc1-3 (stereo not shown) | 10 to 1000 | > 10000 | 
4 | CCN(C(C)=O)C1CCN(C(=O)C2=Cc3ccccc3-c3c(C4CCCCC4)c4ccc(C(=O)NS(=O)(=O)N(C)C)cc4n3C2)C1 (stereo not shown) | 10 to 1000 | 70 to 1000 | 
5 | COC(=O)c1ccc2c(C3CCCCC3)c3n(c2c1)CC(C(=O)N1CCCC(F)C1)=Cc1ccccc1-3 (stereo not shown) | 10 to 1000 | > 370 | 
6 | CN(C(=O)C1=Cc2ccccc2-c2c(C3CCCCC3)c3ccc(C(=O)NS(=O)(=O)N(C)C)cc3n2C1)C1CCS(=O)(=O)C1 (stereo not shown) | 10 to 1000 | 70 to 1000 | 
7 | CN1CCCC(CN(C)C(=O)C2=Cc3ccccc3-c3c(C4CCCCC4)c4ccc(C(=O)O)cc4n3C2)C1 (stereo not shown) | 10 to 1000 | 70 to 1000 | 
8 | COc1ccc2c(c1)C=C(C(=O)N1CCN(CCO)CC1)Cn1c-2c(C2CCCCC2)c2ccc(C(=O)NS(=O)(=O)N(C)C)cc21 |  |  | IC50 ([1]; Table 1b, read-out: IC50*): 20 to 1000 nM; EC50 ([2]; Table 1b): 30 to 1000 nM
9 | COc1ccc2c(c1)CC(NC(=O)N1CCOC(CNC(C)=O)C1)Cn1c-2c(C2CCCCC2)c2ccc(C(=O)NS(=O)(=O)N(C)C)cc21 (stereo not shown) |  |  | IC50 ([1]; Table 1a, read-out: IC50*): < 20 nM; EC50 ([2]; Table 1a): 30 to 1000 nM
10 | CN(C)S(=O)(=O)NC(=O)c1ccc2c(C3CCCCC3)c3n(c2c1)CC(C(=O)N1CCN(C(=O)OC(C)(C)C)CC1)=Cc1ccccc1-3 | 10 to 1000 | 70 to 1000 | 
11 | CN(C)S(=O)(=O)NC(=O)c1ccc2c(C3CCCCC3)c3n(c2c1)CC(C(=O)N1CCC(N2CCOCC2)CC1)Cc1ccccc1-3 (stereo not shown) | 10 to 1000 | 70 to 1000 | 
12 | C[C@@H]1CN(C(=O)c2ccccc2)CCN1C(=O)C1=Cc2ccccc2-c2c(C3CCCCC3)c3ccc(C(=O)NS(=O)(=O)N(C)C)cc3n2C1 | 10 to 1000 | 70 to 1000 | 
13 | C[C@@H]1CN(CCNC(=O)C2=Cc3ccccc3-c3c(C4CCCCC4)c4ccc(C(=O)NS(=O)(=O)N(C)C)cc4n3C2)C[C@H](C)O1 [drawing 130] | 10 to 1000 | 70 to 1000 | 
14 | O=C(O)c1ccc2c(C3CCCCC3)c3n(c2c1)CC(C(=O)N1CCC(N2CCOCC2)CC1)=Cc1ccccc1-3 | 10 to 1000 | 70 to 1000 | 
15 | COc1ccc2c(c1)C=C(C(=O)N(C)Cc1nccs1)Cn1c-2c(C2CCCCC2)c2ccc(C(=O)NS(=O)(=O)N(C)C)cc21 |  |  | IC50 ([1]; Table 1b, read-out: IC50*): < 20 nM; EC50 ([2]; Table 1b): 30 to 1000 nM
16 | CN(C)S(=O)(=O)NC(=O)c1ccc2c(C3CCCCC3)c3n(c2c1)CC(C(=O)N1CCN(C(=O)c2ccccc2)CC1)=Cc1ccccc1-3 | 10 to 1000 | 70 to 1000 | 
17 | COc1ccc2c(c1)CC(NC(=O)N1CC(OC)C1)Cn1c-2c(C2CCCCC2)c2ccc(C(=O)NS(=O)(=O)N(C)C)cc21 (stereo not shown) |  |  | IC50 ([1]; Table 1b, read-out: IC50*): 20 to 1000 nM; EC50 ([2]; Table 1b): 30 to 1000 nM
18 | COc1ccc2c(c1)C=C(C(=O)N1CCN(CCOCCO)CC1)Cn1c-2c(C2CCCCC2)c2ccc(C(=O)NS(=O)(=O)N(C)C)cc21 |  |  | IC50 ([1]; Table 1b, read-out: IC50*): 20 to 1000 nM; EC50 ([2]; Table 1b): 30 to 1000 nM
19 | COC(=O)c1ccc2c(C3CCCCC3)c3n(c2c1)CC(C(=O)N1CCC(N2CC[C@@H](F)C2)CC1)=Cc1ccccc1-3 | > 1000 | > 370 | 
20 | COc1ccc2c(c1)C=C(C(=O)N(CC(=O)N(C)C)CC(=O)N(C)C)Cn1c-2c(C2CCCCC2)c2ccc(C(=O)NS(=O)(=O)N(C)C)cc21 |  |  | IC50 ([1]; Table 1b, read-out: IC50*): < 20 nM; EC50 ([2]; Table 1b): 30 to 1000 nM
21 | COc1ccc2c(c1)C=C(C(=O)N1CCC(CO)CC1)Cn1c-2c(C2CCCCC2)c2ccc(C(=O)NS(=O)(=O)N(C)C)cc21 |  |  | IC50 ([1]; Table 1b, read-out: IC50*): 20 to 1000 nM; EC50 ([2]; Table 1b): 30 to 1000 nM
22 | CN(C)S(=O)(=O)NC(=O)c1ccc2c(C3CCCCC3)c3n(c2c1)CC(C(=O)N1CCN(S(=O)(=O)c2ccccc2)CC1)=Cc1ccccc1-3 | 10 to 1000 | 70 to 1000 | 
23 | CN(C)S(=O)(=O)NC(=O)c1ccc2c(C3CCCCC3)c3n(c2c1)CC(C(=O)N1CCN2C(=O)c4ccccc4CC2C1)=Cc1ccccc1-3 (stereo not shown) | 10 to 1000 | 70 to 1000 | 
24 | COc1ccc2c(c1)CC(C(=O)N1CCN(C(=O)C(C)(C)O)CC1)Cn1c-2c(C2CCCCC2)c2ccc(C(=O)NS(=O)(=O)N(C)C)cc21 (stereo not shown) |  |  | IC50 ([1]; Table 1b, read-out: IC50*): 20 to 1000 nM; EC50 ([2]; Table 1b): 30 to 1000 nM
25 | CC(=O)N(C)C1CCN(C(=O)C2=Cc3ccccc3-c3c(C4CCCCC4)c4ccc(C(=O)NS(=O)(=O)N(C)C)cc4n3C2)C1 (stereo not shown) | 10 to 1000 | 70 to 1000 | 
26 | CN(C)S(=O)(=O)NC(=O)c1ccc2c(C3CCCCC3)c3n(c2c1)CC(C(=O)N1CCCC(C(N)=O)C1)=Cc1ccccc1-3 (stereo not shown) | 10 to 1000 | 70 to 1000 | 
